Data set [1] deals with Hepatitis C virus. As to the kind of experiment: Antiviral activity against HCV subtype 1a infected in human hepatoma cells. It is filed as functional, organism-based, Hepacivirus hominis.
Data set [2] deals with Hepatitis C virus. As to the kind of experiment: Antiviral activity against HCV subtype 1b infected in human hepatoma cells. It is filed as functional, organism-based, Hepacivirus hominis. To be noted: genotype 1b.
Data set [3] can be described thus: Drug absorption in Sprague-Dawley rat portal vein at 6.15 mg/kg, po. The format is ADME, organism-based. Also on record: dose 6.15 mg/kg, route oral. The conditions noted are these: read-out: Drug absorption.
Data set [4] has as its system Hepatitis C virus. The data set can be described thus: Antiviral activity against HCV subtype 1b expressing NS3/4A A156S mutant protease infected in ET cells after 72 hrs. The format is functional, organism-based, Hepacivirus hominis. To be noted: genotype 1b.
Data set [5] is described as follows: Clearance in Sprague-Dawley rat at 1.23 mg/kg, iv. It is filed as ADME, organism-based. Set-up: dose 1.23 mg/kg, route intravenous. To be noted: in vivo.
In data set [6] the test system is Hepatitis C virus. As to the kind of experiment: Antiviral activity against HCV subtype 1b expressing wild type NS3/4A protease infected in ET cells after 72 hrs. It is filed as functional, organism-based, Hepacivirus hominis. The conditions noted are these: genotype 1b.
Data set [7] is described as follows: AUC in Sprague-Dawley rat at 1.23 mg/kg, iv. To be noted: plasma. The format is ADME, organism-based. Also on record: dose 1.23 mg/kg, route intravenous.
Data set [8] relates to Hepatitis C virus. As to the kind of experiment: Antiviral activity against HCV subtype 1b expressing NS3/4A A156V mutant protease infected in ET cells after 72 hrs. The format is functional, organism-based, Hepacivirus hominis. The conditions noted are these: genotype 1b.
Data set [9] concerns Hepatitis C virus. The data set can be described thus: Antiviral activity against HCV subtype 1b expressing NS3/4A R115K mutant protease infected in ET cells after 72 hrs. The conditions noted are these: genotype 1b. It is filed as functional, organism-based, Hepacivirus hominis.
Data set [10] can be described thus: Terminal half life in Sprague-Dawley rat at 6.15 mg/kg, po and 1.23 mg/kg, iv. The format is ADME, organism-based. To be noted: in vivo, read-out: beta t1/2 (converted).
Data set [11] in a line: Inhibition of HCV subtype 1a NS3/4A protease (Ac-DE-Dap(QXL520)-EE-Abu-psi-[COO]-ASC(5-FAMsp)-NH2 as substrate by FRET analysis. Set-up: species or system Hepatitis C virus subtype 1a.
In data set [12] the test system is Hepatitis C virus. As to the kind of experiment: Antiviral activity against HCV subtype 1b expressing NS3/4A A156T mutant protease infected in ET cells after 72 hrs. The format is functional, organism-based, Hepacivirus hominis. The conditions noted are these: genotype 1b.
The nature of data set [13]: Oral bioavailability in Sprague-Dawley rat at 6.15 mg/kg. It is filed as ADME, organism-based. The conditions noted are these: in vivo.
Data set [14] is described as follows: AUC (0 to infinity) in Sprague-Dawley rat at 6.15 mg/kg, po. To be noted: plasma. It is filed as ADME, organism-based. Set-up: time infinity, dose 6.15 mg/kg, route oral.
Data set [15] can be described thus: Terminal half life in Sprague-Dawley rat at 5 mg/kg, po and 1 mg/kg, iv. It is filed as ADME, organism-based. The conditions noted are these: in vivo, read-out: beta t1/2 (converted).
Data set [16] is described as follows: AUC (0 to infinity) in Sprague-Dawley rat at 5 mg/kg, po. It is filed as ADME, organism-based. Set-up: time infinity, dose 5 mg/kg, route oral. To be noted: plasma.
A short description of data set [17]: Drug absorption in Sprague-Dawley rat portal vein at 5 mg/kg, po. It is filed as ADME, organism-based. Set-up: dose 5 mg/kg, route oral. To be noted: read-out: Drug absorption.
Data set [18] concerns Hepatitis C virus. The data set can be described thus: Antiviral activity against HCV subtype 1b expressing NS3/4A D168A mutant protease infected in ET cells after 72 hrs. The format is functional, organism-based, Hepacivirus hominis. The conditions noted are these: genotype 1b.
The nature of data set [19]: AUC in Sprague-Dawley rat at 1 mg/kg, iv. To be noted: plasma. The format is ADME, organism-based. Set-up: dose 1 mg/kg, route intravenous.
The subject of data set [20] is Hepatitis C virus. As to the kind of experiment: Antiviral activity against HCV subtype 1b expressing NS3/4A D168V mutant protease infected in ET cells after 72 hrs. To be noted: genotype 1b. It is filed as functional, organism-based, Hepacivirus hominis.
The nature of data set [21]: Clearance in Sprague-Dawley rat at 1 mg/kg, iv. It is filed as ADME, organism-based. Set-up: dose 1 mg/kg, route intravenous. The conditions noted are these: in vivo.
The nature of data set [22]: Oral bioavailability in Sprague-Dawley rat at 5 mg/kg. The conditions noted are these: in vivo. It is filed as ADME, organism-based.

Consider `COc1ccc2c(O[C@@H]3C[C@H]4C(=O)N[C@]5(C(=O)NS(=O)(=O)C6CC6)C[C@H]5/C=C\CCCCC[C@H](NC(=O)OC(C)(C)C)C(=O)N4C3)cc(-c3nc(C4CC4)cs3)nc2c1C`, for which the EC50 amounted to 0.4 nM in the data set on Hepatitis C virus [1]; 0.4 nM with Hepatitis C virus [2]; 0.08 nM in the data set with Hepatitis C virus [4]; 0.02 nM in the data set on Hepatitis C virus [6]; 1.5 nM in the data set on Hepatitis C virus [8]; 6 nM with Hepatitis C virus [9]. In the data set on Hepatitis C virus [12], this compound yielded an EC50 of 1.9 nM. In [3], the Fa is 14.5%. This compound showed a clearance in [5] of 45.6 mL/min/kg. For the same compound, in data set [7], the AUC was determined as 381 ng·h/mL. Further, the half-life in data set [10] was 1.63 h. The same compound came in with an IC50 in data set [11] of 6.3 nM. In addition, the bioavailability in [13] stood at 10%. Besides, the area under the curve AUC(0-inf) in [14] came to 201 ng·h/mL.
For the compound `COc1ccc2c(O[C@@H]3C[C@H]4C(=O)N[C@]5(C(=O)NS(=O)(=O)C6CC6)C[C@H]5/C=C\CCCCC[C@H](NC(=O)C5(OC)CCC5)C(=O)N4C3)cc(-c3nc(C4CC4)cs3)nc2c1C`, the EC50 stood at 0.2 nM in the data set with Hepatitis C virus [1]; 0.1 nM with Hepatitis C virus [2]; 0.3 nM with Hepatitis C virus [4]; 0.04 nM in the data set on Hepatitis C virus [6]; 91 nM with Hepatitis C virus [18]; 263 nM in the data set on Hepatitis C virus [20]. For the same compound, the EC50 in the data set on Hepatitis C virus [8] came to 85 nM; in the data set on Hepatitis C virus [9], 44 nM; in the data set on Hepatitis C virus [12], 20 nM. For the same compound, the half-life in [15] is 0.99 h. Besides, the area under the curve AUC(0-inf) in [16] came to 49.1 ng·h/mL. For the same compound, the Fa in data set [17] stood at 16.5%. Moreover, in data set [19], the AUC was 117 ng·h/mL. In data set [21], this compound gave a clearance of 144 mL/min/kg. In data set [22], this compound had a bioavailability of 8.2%. Further, the IC50 in data set [11] was found to be 2 nM.

In general, EC50 refers to the concentration that produces a half-maximal response. Higher therefore signals weaker potency. The clearance is the volume of plasma or blood freed of the substance per unit of time. As a reminder, the AUC is the area under the concentration-time curve, a measure of exposure. One may read the IC50 as the concentration that inhibits the measured activity by half. What is called bioavailability is the share of a dose that reaches the circulation, judged against a reference dose that is usually intravenous. A word on the AUC(0-inf): it is total exposure, with the tail of the curve extrapolated. Lower therefore signals less exposure.

(Values after ChEMBL document CHEMBL2202978, “Synthesis and antiviral activity of novel HCV NS3 protease inhibitors with P4 capping groups” (Bioorg Med Chem Lett, 2012).)
